Measured values: ChEMBL document CHEMBL1149978, “Synthesis of adamantane spiro sultones as potential antiviral agents” (Bioorg Med Chem Lett, 1992)
Active and inactive are the calls of the source.

Legend:
[1] = test system: Human immunodeficiency virus 1; assay: Antiviral activity against human immunodeficiency virus type 1 (HIV-1) at concentrations up to 200 ug/mL; NA means Inactive; assay type: functional, organism-based
[2] = test system: Human immunodeficiency virus 2; assay: Antiviral activity against human immunodeficiency virus type 2 (HIV-2) at concentrations up to 200 ug/mL; NA means Inactive; assay type: functional, organism-based
Human respirovirus 3 = assay: Antiviral activity against parainfluenza-3 at concentrations up to 200 ug/mL; NA means Inactive; assay type: functional, organism-based
[3] = Antiviral activity against respiratory syncytial at concentrations up to 200 ug/mL; NA means Inactive; assay type: functional
Influenza A virus = assay: Antiviral activity against influenza-A at concentrations up to 200 ug/mL; NA means Inactive; assay type: functional, organism-based
Influenza B virus = assay: Antiviral activity against influenza-B at concentrations up to 200 ug/mL; NA means Inactive; assay type: functional, organism-based
[4] = Antiviral activity against measles at concentrations up to 200 ug/mL; NA means Inactive; assay type: functional

Measured: Activity

O=C1CS(=O)(=O)OC12C1CC3CC(C1)CC2C3 (configuration not stated)
inactive: all assays above

NC1=CS(=O)(=O)OC12C1CC3CC(C1)CC2C3 (configuration not stated)
not listed: [3] | [4]
inactive: all other assays above
